Test results published in patent publication US20240269298A1, “PHOSPHONYL DERIVATIVE, AND COMPOSITION AND PHARMACEUTICAL APPLICATION THEREOF” (XIZANG HAISCO PHARMACEUTICAL CO., LTD., priority 2021, published 2024).
Read-outs that look alike come from different tables or passages of the source.

System: NCI-H1975 (EGFR-L858R-T790M) cells
Test: Inhibitory activity on proliferation of NCI-H1975 (EGFR-L858R-T790M) cells (CTG, 72 h)
Assay type: cell-based
Conditions: Homo sapiens
Protocol: NCI-H1975 (EGFR-L858R-T790M) and A431 (EGFR-WT) cells were purchased from ATCC and cultured in an incubator at 37° C. with 5% CO2, and the culture mediums were RPMI1640+10% FBS and DMEM+10% FBS, respectively. On the first day, NCI-H1975 (EGFR-L858R-T790M) and A431 (EGFR-WT) cells in the logarithmic phase were collected, and viable cells were counted using an automatic cell analyzer (countstar). The cell suspensions were adjusted with the culture mediums and plated on a 96-well cell culture plate at 1000 cells/well for NCI-H1975 (EGFR-L858R-T790M) cells and at 3000 cells/well for A431 cells. The next day, the culture mediums were aspirated, and 90 μL of fresh culture mediums and 10 μL of the compounds at different concentrations were added to each well, wherein the final concentration of DMSO in each well was 0.1%. The plate was cultured in the incubator at 37° C. with 5% CO2 for 72 hours. After 72 hours of drug treatment, 50 μL of CTG solution (promega, G7572), which was already pre-melted and equilibrated to room temperature, was added to each well, and the mixtures were uniformly mixed for 2 min using a microplate shaker. The plate was placed at room temperature for 10 min, and then […] signal values were measured using a microplate reader (PHERAstar FSX).
Surviving cells % was calculated based on Vsample/Vvehicle control×100%, wherein Vsample was the readout of the drug-treated group, and Vvehicle control was the average value of the vehicle control group. Using the origin 9.2 software and nonlinear regression model, S-shaped dose-survival curves were plotted, and IC50 values were calculated.

[1] = read-out: IC50 (value in brackets)

SMILES | IC50 (read-out: IC50 (class symbol)) | IC50 [1]
COc1cc(N2CCC3(CCN(CC4CCN(c5ccc6c(c5)C(=O)N(C5CCC(=O)NC5=O)C6=O)CC4)CC3)CC2)c(C2CC2)cc1Nc1ncc(Br)c(Nc2ccc3nccnc3c2P(C)(C)=O)n1 (centres unmarked) [Compound 3, 5-(4-((9-(4-((5-bromo-4-((5-(dimethylphosphoryl)quinoxalin-6-yl)amino)pyrimidin-2-yl)amino)-2-cyclopropyl-5-methoxyphenyl)-3,9-diazaspiro[5.5]undecan-3-yl)methyl)piperidin-1-yl)-2-(2,6-dioxopiperidin-3-yl)isoindoline-1,3-dione] | < 100 nM | 75 nM
COc1cc(N2CCC(CN3CCC4(CCCN(c5ccc6c(c5)C(=O)N(C5CCC(=O)NC5=O)C6=O)C4)CC3)CC2)c(-c2cnn(C)c2)cc1Nc1ncc(Cl)c(Nc2ccc3nccnc3c2P(C)(C)=O)n1 (centres unmarked) [Compound 10, 5-(9-((1-(4-((5-chloro-4-((5-(dimethylphosphoryl)quinoxalin-6-yl)amino)pyrimidin-2-yl)amino)-5-methoxy-2-(1-methyl-1H-pyrazol-4-yl)phenyl)piperidin-4-yl)methyl)-2,9-diazaspiro[5.5]undecan-2-yl)-2-(2,6-dioxopiperidin-3-yl)isoindoline-1,3-dione] | < 100 nM | 13 nM
COc1cc(N2CCC(N3CCC4(CCCN(c5ccc6c(c5)C(=O)N(C5CCC(=O)NC5=O)C6=O)C4)CC3)CC2)c(-c2cnn(C)c2)cc1Nc1ncc(Cl)c(Nc2ccc3nccnc3c2P(C)(C)=O)n1 (centres unmarked) [Compound 11, 5-(9-(1-(4-((5-chloro-4-((5-(dimethylphosphoryl)quinoxalin-6-yl)amino)pyrimidin-2-yl)amino)-5-methoxy-2-(1-methyl-1H-pyrazol-4-yl)phenyl)piperidin-4-yl)-2,9-diazaspiro[5.5]undecan-2-yl)-2-(2,6-dioxopiperidin-3-yl)isoindoline-1,3-dione] | < 100 nM | 7 nM
COc1cc(N2CCC(N3CCC(N4CCC5(CCCN(c6ccc7c(c6)C(=O)N(C6CCC(=O)NC6=O)C7=O)C5)CC4)CC3)CC2)c(-c2cnn(C)c2)cc1Nc1ncc(Cl)c(Nc2ccc3nccnc3c2P(C)(C)=O)n1 (centres unmarked) [Compound 15, 5-(9-(1′-(4-((5-chloro-4-((5-(dimethylphosphoryl)quinoxalin-6-yl)amino)pyrimidin-2-yl)amino)-5-methoxy-2-(1-methyl-1H-pyrazol-4-yl)phenyl)-[1,4′-bipiperidin]-4-yl)-2,9-diazaspiro[5.5]undecan-2-yl)-2-(2,6-dioxopiperidin-3-yl)isoindoline-1,3-dione] | < 100 nM | 66 nM
COc1cc(N2CCC3(CCN(CC4CCN(c5cc6c(cc5F)C(=O)N(C5CCC(=O)NC5=O)C6=O)CC4)CC3)CC2)c(-c2cnn(C)c2)cc1Nc1ncc(Br)c(Nc2ccc3nccnc3c2P(C)(C)=O)n1 (centres unmarked) [Compound 21, 5-(4-((9-(4-((5-bromo-4-((5-(dimethylphosphoryl)quinoxalin-6-yl)amino)pyrimidin-2-yl)amino)-5-methoxy-2-(1-methyl-1H-pyrazol-4-yl)phenyl)-3,9-diazaspiro[5.5]undecan-3-yl)methyl)piperidin-1-yl)-2-(2,6-dioxopiperidin-3-yl)-6-fluoroisoindoline-1,3-dione] | < 100 nM | 39 nM
COc1cc(N2CCN(C3CCN(CC4CCN(c5ccc6c(c5)C(=O)N(C5CCC(=O)NC5=O)C6=O)CC4)CC3)CC2)c(C2CC2)cc1Nc1ncc(Cl)c(Nc2ccc3nccnc3c2P(C)(C)=O)n1 (centres unmarked) [Compound 26, 5-(4-((4-(4-(4-((5-chloro-4-((5-(dimethylphosphoryl)quinoxalin-6-yl)amino)pyrimidin-2-yl)amino)-2-cyclopropyl-5-methoxyphenyl)piperazin-1-yl)piperidin-1-yl)methyl)piperidin-1-yl)-2-(2,6-dioxopiperidin-3-yl)isoindoline-1,3-dione] | 100 to 500 nM | 
COc1cc(N2CCC3(CCN(CC4CCN(c5cc6c(cc5F)C(=O)N(C5CCC(=O)NC5=O)C6=O)CC4)CC3)CC2)c(-c2cnn(C)c2)cc1Nc1ncc(Cl)c(Nc2ccc3nccnc3c2P(C)(C)=O)n1 (centres unmarked) [Compound 27, 5-(4-((9-(4-((5-chloro-4-((5-(dimethylphosphoryl)quinoxalin-6-yl)amino)pyrimidin-2-yl)amino)-5-methoxy-2-(1-methyl-1H-pyrazol-4-yl)phenyl)-3,9-diazaspiro[5.5]undecan-3-yl)methyl)piperidin-1-yl)-2-(2,6-dioxopiperidin-3-yl)-6-fluoroisoindoline-1,3-dione] | < 100 nM | 20 nM
COc1cc(N2CCC(N3CCC4(CCCN(c5cc6c(cc5F)C(=O)N(C5CCC(=O)NC5=O)C6=O)C4)CC3)CC2)c(-c2cnn(C)c2)cc1Nc1ncc(Cl)c(Nc2ccc3nccnc3c2P(C)(C)=O)n1 (centres unmarked) [Compound 28, 5-(9-(1-(4-((5-chloro-4-((5-(dimethylphosphoryl)quinoxalin-6-yl)amino)pyrimidin-2-yl)amino)-5-methoxy-2-(1-methyl-1H-pyrazol-4-yl)phenyl)piperidin-4-yl)-2,9-diazaspiro[5.5]undecan-2-yl)-2-(2,6-dioxopiperidin-3-yl)-6-fluoroisoindoline-1,3-dione] | < 100 nM | 33 nM

The next lines start with the values.

IC50 (read-out: IC50 (class symbol)) | IC50 [1] | SMILES
< 100 nM | 52 nM | COc1cc(N2CCC(N3CCN(CC4CCN(c5cc6c(cc5F)C(=O)N(C5CCC(=O)NC5=O)C6=O)CC4)CC3)CC2)c(-c2cnn(C)c2)cc1Nc1ncc(Cl)c(Nc2ccc3nccnc3c2P(C)(C)=O)n1 (centres unmarked) [Compound 5, 5-(4-((4-(1-(4-((5-chloro-4-((5-(dimethylphosphoryl)quinoxalin-6-yl)amino)pyrimidin-2-yl)amino)-5-methoxy-2-(1-methyl-1H-pyrazol-4-yl)phenyl)piperidin-4-yl)piperazin-1-yl)methyl)piperidin-1-yl)-2-(2,6-dioxopiperidin-3-yl)-6-fluoroisoindoline-1,3-dione]
< 100 nM | 34 nM | COc1cc(N2CCC(N3CCC(CN4CCN(c5ccc6c(c5)C(=O)N(C5CCC(=O)NC5=O)C6=O)CC4)CC3)CC2)c(-c2cnn(C)c2)cc1Nc1ncc(Cl)c(Nc2ccc3nccnc3c2P(C)(C)=O)n1 (centres unmarked) [Compound 8, 5-(4-((1′-(4-((5-chloro-4-((5-(dimethylphosphoryl)quinoxalin-6-yl)amino)pyrimidin-2-yl)amino)-5-methoxy-2-(1-methyl-1H-pyrazol-4-yl)phenyl)-[1,4′-bipiperidin]-4-yl)methyl)piperazin-1-yl)-2-(2,6-dioxopiperidin-3-yl)isoindoline-1,3-dione]
< 100 nM | 73 nM | COc1cc(N2CCC(N3CCC(CN4CCC5(CCCN(c6ccc7c(c6)C(=O)N(C6CCC(=O)NC6=O)C7=O)C5)CC4)CC3)CC2)c(-c2cnn(C)c2)cc1Nc1ncc(Cl)c(Nc2ccc3nccnc3c2P(C)(C)=O)n1 (centres unmarked) [Compound 16, 5-(9-((1′-(4-((5-chloro-4-((5-(dimethylphosphoryl)quinoxalin-6-yl)amino)pyrimidin-2-yl)amino)-5-methoxy-2-(1-methyl-1H-pyrazol-4-yl)phenyl)-[1,4′-bipiperidin]-4-yl)methyl)-2,9-diazaspiro[5.5]undecan-2-yl)-2-(2,6-dioxopiperidin-3-yl)isoindoline-1,3-dione]
100 to 500 nM |  | COc1cc(N2CCC(N3CCC(CN4CCCC5(CCN(c6ccc7c(c6)C(=O)N(C6CCC(=O)NC6=O)C7=O)CC5)C4)CC3)CC2)c(-c2cnn(C)c2)cc1Nc1ncc(Cl)c(Nc2ccc3nccnc3c2P(C)(C)=O)n1 (centres unmarked) [Compound 17, 5-(2-((1′-(4-((5-chloro-4-((5-(dimethylphosphoryl)quinoxalin-6-yl)amino)pyrimidin-2-yl)amino)-5-methoxy-2-(1-methyl-1H-pyrazol-4-yl)phenyl)-[1,4′-bipiperidin]-4-yl)methyl)-2,9-diazaspiro[5.5]undecan-9-yl)-2-(2,6-dioxopiperidin-3-yl)isoindoline-1,3-dione]
< 100 nM | 33 nM | COc1cc(N2CCC(N3CCN(CC4CCN(c5cc6c(cc5F)C(=O)N(C5CCC(=O)NC5=O)C6=O)CC4)CC3)CC2)c(-c2cnn(C)c2)cc1Nc1ncc(Br)c(Nc2ccc3nccnc3c2P(C)(C)=O)n1 (centres unmarked) [Compound 29, 5-(4-((4-(1-(4-((5-bromo-4-((5-(dimethylphosphoryl)quinoxalin-6-yl)amino)pyrimidin-2-yl)amino)-5-methoxy-2-(1-methyl-1H-pyrazol-4-yl)phenyl)piperidin-4-yl)piperazin-1-yl)methyl)piperidin-1-yl)-2-(2,6-dioxopiperidin-3-yl)-6-fluoroisoindoline-1,3-dione]
< 100 nM | 15 nM | COc1cc(N2CCN(C3CCN(CC4CCN(c5ccc6c(c5)C(=O)N(C5CCC(=O)NC5=O)C6=O)CC4)CC3)CC2)c(-c2cnn(C)c2)cc1Nc1ncc(Br)c(Nc2ccc3nccnc3c2P(C)(C)=O)n1 (centres unmarked) [Compound 31, 5-(4-((4-(4-(4-((5-bromo-4-((5-(dimethylphosphoryl)quinoxalin-6-yl)amino)pyrimidin-2-yl)amino)-5-methoxy-2-(1-methyl-1H-pyrazol-4-yl)phenyl)piperazin-1-yl)piperidin-1-yl)methyl)piperidin-1-yl)-2-(2,6-dioxopiperidin-3-yl)isoindoline-1,3-dione]
